Data on 20 compounds can be found in US20260317312A1, “ISOXAZOLIDINES AS RIPK1 INHIBITORS AND USE THEREOF” (GENZYME CORPORATION, priority 2023, published 2026).

The subject of one experiment is U937 cells. The experiment can be described thus: Cellular assay in U937 cells to measure activity of RIPK1-inhibitors on cell death (necroptosis). Type of experiment: cell-based. Particulars: overnight (18 to 24 hrs), 37° C., MTS readout. From the text: Upon TNF-Receptor I ligation, Ser/Thr kinase RIPK1 is recruited to a transient receptor complex I. Upon modification of RIPK1 which promotes activation of RIPK1, complex lib can form, that involves recruitment of RIPK3 and MLKL (mixed lineage-kinase domain-like protein) which then translocates from the cytosol to the plasma membrane to execute cell death (Cai, Z. et al, Nat. Cell Biol. (2014)16:55-65).
Cell death was quantified in 96 well plates by determination of the amount of live cell using a CellTiter 96 Aqueous reagent (Promega), a calorimetric method to measure the number of live cells by reducing tetrazolium compound [3-(4,5-dimethylthiazol-2-yl)-5-(3-carboxymethoxyphenyl)-2-(4-sulfophenyl)-2H-tetrazolium, inner salt; MTS] into formazan. Absorbance of formazan was read at 490 nm. The inhibitory activity of the test compound was quantified in a concentration response curve (CRC) experiment.
Compounds were obtained as 10 mM stock solutions and were diluted 1 to 10 volumes with DMSO to yield a 1 mM solution. From this solution 2 μl were diluted with 998 μl growth medium. 100 μl of 2 μM compound solution was further diluted sequentially with a dilution factor of 2.5 by adding 150 μl growth medium. A total of 10 concentrations were tested ranging from 10 μM to 0.26 nM or from 1 μM to 0.07 nM.
U937 cells were cultured in RPM11640 Glutamax and 10% heat inactivated FBS. 50 μl cell suspension containing 1×10^6 cells/ml supplemented with 50 μM zVAD.fmk (Benzyloxycarbonyl-Val-Ala-Asp (Ome) fluoromethylketone) and 100 ng/ml recombinant human TNFα were dispensed in each well of a 96-well plate. 50 μl of compound dilutions (described in Cellular assay in U937 cells) were added and the cell suspension incubated overnight (18 to 24 hrs) at 37° C., 5% CO2 in a humidified atmosphere (95% rH). High (no compound) and low control (no TNFα, zVAD.fmk) were tested with 7 replicates; all compound concentrations were tested in duplicates on each experimental plate.
CellTiter 96 Aqueous reagent was mixed (100 μl PMS (phenazine methosulfate) solution/2 ml MTS (3-(4,5-[…])-5-(3-carboxymethoxyphenyl)-2-(4-sulfophenyl)-2H-tetrazolium, inner salt) solution) and 20 μl were added per well. After 4 hrs incubation at 37° C. (5% CO2 95% rH) optical density was measured at 490 nm on a microplate reader (Tecan Infinite M1000).
The % inhibition is expressed as percentage of the maximal inhibition value obtained in the absence of TNFα/zVAD.fmc.

The target of experiment [1] is T1, hRIPK1 (aa 1-375) fusion protein (Homo sapiens, UniProt Q13546).
T1 construct: hRIPK1 (aa 1-375) fusion protein
T1 sequence (Q13546 1-375): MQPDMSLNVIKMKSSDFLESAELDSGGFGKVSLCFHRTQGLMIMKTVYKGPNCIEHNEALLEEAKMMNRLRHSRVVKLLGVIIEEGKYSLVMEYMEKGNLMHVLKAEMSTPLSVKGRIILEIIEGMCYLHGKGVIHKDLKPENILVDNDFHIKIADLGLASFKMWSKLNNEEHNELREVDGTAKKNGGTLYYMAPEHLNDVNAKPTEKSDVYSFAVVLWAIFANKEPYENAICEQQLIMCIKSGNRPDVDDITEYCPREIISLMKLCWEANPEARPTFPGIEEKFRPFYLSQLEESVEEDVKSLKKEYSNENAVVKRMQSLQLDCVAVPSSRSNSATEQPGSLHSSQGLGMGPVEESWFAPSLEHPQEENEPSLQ
The experiment can be described thus: Receptor-Interacting Protein Kinase 1 inhibition, ADP Glo assay (conversion of ATP to ADP due to autophosphorylation). Particulars: ATP 50 μM, 30 min preincubation, 240 min incubation, room temperature, DMSO 1%. Type of experiment: biochemical. On the procedure: The catalytic activity of RIPK1 was measured by monitoring the conversion of Adenosine triphosphate (ATP) to Adenosine diphosphate (ADP) due to autophosphorylation using an ADP-Glo kinase kit (Promega, catalog no. V9104).
In detail, 2 μl recombinantly produced hRIPK1 (aa 1-375) fusion protein (end concentration 3.6 μg/ml) and 2 μl compound (end concentration 33300-1.69 nM; DMSO end concentration 1%) were incubated for 30 minutes at room temperature and then 2 μl ATP (ADP Glo kit, end concentration 50 μM) were added. After another 240 minutes incubation at room temperature, 5 μl Promega ADP-Glo reagent I was added to quench the reaction and deplete unconsumed ATP. After an incubation period of 30 minutes, 10 μl Promega ADP-Glo detection reagent II was added resulting in conversion of ADP to ATP, which generates a light-reaction between luciferase and luciferin. Luminescence was quantified after 30 minutes with a Pherastar FS (BMG LABTECH, Ortenberg).
The adjustment was obtained by nonlinear regression using the Levenberg Marquardt algorithm.

The mark [2] stands for this setting: Homo sapiens, U-937, TNFα/zVAD.fmk induced cell death (necroptosis).
[3] abbreviates: TNFα/zVAD.fmk induced cell death (necroptosis).

By IC50 is commonly meant the concentration that inhibits the measured activity by half. Consider `Cn1ccc2c(NC[C@H]3CC[C@H](C(=O)N4OCC[C@H]4c4cc(F)cc(C#N)c4)CC3)ncnc21` [Compound 31, trans-3-fluoro-5-((S)-2-(4-(((7-methyl-7H-pyrrolo[2,3-d]pyrimidin-4-yl)amino)methyl)cyclohexane-1-carbonyl)isoxazolidin-3-yl)benzonitrile], for which the values for the half-maximal inhibitory concentration (IC50) (in the experiment on U937 cells (setting [2]); in experiment [1]) were 373 nM and 110 nM, respectively.
`N#Cc1cc(F)cc(N[C@H]2C[C@@H](C(=O)N3OCC[C@H]3c3cccc(F)c3)C2)c1` [Compound 26, cis-3-fluoro-5-((3-((S)-3-(3-fluorophenyl)isoxazolidine-2-carbonyl)cyclobutyl)amino)benzonitrile]: the half-maximal inhibitory concentration (IC50) in the experiment with U937 cells (setting [2]) was 152 nM; in experiment [1] it was 52 nM.
As for `N#Cc1cc(F)cc(OC[C@H]2CC[C@@H](C(=O)N3OCC[C@H]3c3cc(F)cc(F)c3)CC2)c1` [Compound 53, cis-3-((4-((S)-3-(3,5-difluorophenyl)isoxazolidine-2-carbonyl)cyclohexyl)methoxy)-5-fluorobenzonitrile], the IC50 in the experiment with U937 cells (setting [2]) was found to be 17 nM; in experiment [1] it was 18 nM.
Taken in the same sequence, the figures for `N#Cc1ccnc(N[C@H]2C[C@@H](C(=O)N3OCC[C@H]3c3ccc(F)c(F)c3)C2)n1` [Compound 21, cis-2-((3-((S)-3-(3,4-difluorophenyl)isoxazolidine-2-carbonyl)cyclobutyl)amino)pyrimidine-4-carbonitrile] were 212 nM and 29 nM.
As for `NC(=O)c1cc(OCC2CCCC(C(=O)N3OCC[C@H]3c3cc(F)cc(F)c3)CC2)ncn1` (single isomer, unassigned; stereoisomer 1) [Compound 122], the concentration for half-maximal inhibition (IC50) in the experiment on U937 cells (setting [3]) was 30 nM; in experiment [1], 17 nM.
Consider `N#Cc1cc(F)cc([C@@H]2CCON2C(=O)[C@H]2C[C@@H](Nc3ccc(F)c(C#N)c3)C2)c1` [Compound 32, cis-5-((3-((S)-3-(3-cyano-5-fluorophenyl)isoxazolidine-2-carbonyl)cyclobutyl)amino)-2-fluorobenzonitrile], for which the IC50 with U937 cells (setting [2]) worked out at 50 nM; in experiment [1] it was 28 nM.
Consider `C[C@]1(C(=O)N2OCC[C@H]2c2cc(F)cc(F)c2)C[C@@H](Nc2c(Cl)ncnc2C(N)=O)C1` [Compound 10, cis-6-chloro-5-((3-((S)-3-(3,5-difluorophenyl)isoxazolidine-2-carbonyl)-3-methylcyclobutyl)amino)pyrimidine-4-carboxamide], for which the IC50 came to 364 nM in the experiment on U937 cells (setting [2]) and 62 nM in experiment [1].
Taken in the same sequence, the figures for `COC(=O)c1ccnc(N[C@H]2C[C@@H](C(=O)N3OCC[C@H]3c3cc(F)cc(F)c3)C2)n1` [Compound 3, methyl cis-2-((3-((S)-3-(3,5-difluorophenyl)isoxazolidine-2-carbonyl)cyclobutyl)amino)pyrimidine-4-carboxylate] were 536 nM and 47 nM.
Taken in the same sequence, the figures for `N#Cc1cc(NC[C@H]2CC[C@H](C(=O)N3OCC[C@H]3c3cncc(F)c3)CC2)ccc1F` [Compound 34, trans-2-fluoro-5-(((4-((S)-3-(5-fluoropyridin-3-yl)isoxazolidine-2-carbonyl)cyclohexyl)methyl)amino)benzonitrile] were 11 nM and 20 nM.
Regarding `NC(=O)c1cc(OC[C@H]2CC[C@H](C(=O)N3OCC[C@H]3c3cnccn3)CC2)ccc1F` [Compound 101, trans-2-fluoro-5-[[4-[(3S)-3-pyrazin-2-ylisoxazolidine-2-carbonyl]cyclohexyl]methoxy]benzamide], the IC50 with U937 cells (setting [2]) worked out at 140 nM; in experiment [1], 40 nM.
As for `N#Cc1cc(F)cc([C@@H]2CCON2C(=O)C2CCCC(COc3cc(C(N)=O)ncn3)CC2)c1` (single isomer, unassigned; stereoisomer 1) [Compound 126], the IC50 was 54 nM in the experiment with U937 cells (setting [3]) and 25 nM in experiment [1].
In the case of `O=C([C@H]1CC[C@H](COc2cc(Cl)ncn2)CC1)N1OCC[C@H]1c1cc(F)cc(F)c1` [Compound 46, trans-(4-(((6-chloropyrimidin-4-yl)oxy)methyl)cyclohexyl)((S)-3-(3,5-difluorophenyl)isoxazolidin-2-yl)methanone], the figures for the IC50 (in the experiment with U937 cells (setting [2]); in experiment [1]) were 14 nM and 41 nM, respectively.
Taken in the same sequence, the figures for `NC(=O)c1ccnc(N[C@H]2C[C@H](C(=O)N3OCC[C@H]3c3cc(F)cc(F)c3)C2)n1` [Compound 4, trans-2-((3-((S)-3-(3,5-difluorophenyl)isoxazolidine-2-carbonyl)cyclobutyl)amino)pyrimidine-4-carboxamide] were 360 nM and 90 nM.
Taken in the same sequence, the figures for `N#Cc1ccnc(N[C@H]2C[C@@H](C(=O)N3OCC[C@H]3c3cc(F)cc(F)c3)C2)n1` [Compound 2, cis-2-((3-((S)-3-(3,5-difluorophenyl)isoxazolidine-2-carbonyl)cyclobutyl)amino)pyrimidine-4-carbonitrile] were 101 nM and 22 nM.
As to `NC(=O)c1cc(OCC2CCCC(C(=O)N3OCC[C@H]3c3cc(F)cc(F)c3)CC2)ncn1` (single isomer, unassigned; stereoisomer 3) [Compound 124], the IC50 came to 81 nM with U937 cells (setting [3]) and 21 nM in experiment [1].
Turning to `O=C([C@H]1C[C@H](n2cnc3cc(F)ccc32)C1)N1OCC[C@H]1c1cccc(F)c1` [Compound 84, trans-(3-(5-fluoro-1H-benzo[d]imidazol-1-yl)cyclobutyl)((S)-3-(3-fluorophenyl)isoxazolidin-2-yl)methanone], the half-maximal inhibitory concentration (IC50) in the experiment with U937 cells (setting [2]) is 428 nM; in experiment [1] it was 257 nM.
`NC(=O)c1cc(OCC2CCC(C(=O)N3OCC[C@H]3c3cc(F)cc(F)c3)C2)ncn1` (single isomer, unassigned; stereoisomer 4) [Compound 121]: the IC50 with U937 cells (setting [3]) is 755 nM; in experiment [1], 30 nM.
Consider `N#Cc1cc(F)cc(OC[C@H]2CC[C@H](C(=O)N3OCC[C@H]3c3cnccn3)CC2)c1` [Compound 104, trans-3-fluoro-5-[[4-[(3S)-3-pyrazin-2-ylisoxazolidine-2-carbonyl]cyclohexyl]methoxy]benzonitrile], for which the half-inhibitory concentration (IC50) worked out at 30 nM in the experiment on U937 cells (setting [2]) and 24 nM in experiment [1].
For `N#Cc1cc(F)cc([C@@H]2CCON2C(=O)[C@H]2CC[C@H](COc3cc(C#N)ccn3)CC2)c1` [Compound 91, trans-2-[[4-[(3S)-3-(3-cyano-5-fluoro-phenyl)isoxazolidine-2-carbonyl]cyclohexyl]methoxy]pyridine-4-carbonitrile], in that order: 39 nM and 14 nM.
`NC(=O)c1cc(OCC2CCC(C(=O)N3OCC[C@H]3c3cc(F)cc(F)c3)C2)ncn1` (single isomer, unassigned; stereoisomer 1) [Compound 118]: the half-inhibitory concentration (IC50) with U937 cells (setting [3]) is 137 nM; in experiment [1] it was 20 nM.
